Consider 17 molecules from patent publication US12404295B2, “(Hetero)aryl-methyl-thio-beta-D-galactopyranoside derivatives” (Idorsia Pharmaceuticals Ltd, priority 2019, dated 2025).

Where two headings read alike, the source gives them in different places.

In one assay the target is human Gal-3 (hGal-3) (Homo sapiens (Human), UniProt P17931). Briefly: competitive binding assay: biotinylated hGal-3 binding to microplate-adsorbed asialofetuin (ASF). An outline of the steps:
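3 h, 4 °C binding step; cold buffer wash; streptavidin-HRP 80 ng/mL, 1 h, 4 °C; ABTS colorimetric read-out. Compounds diluted serially in DMSO. IC50 reported as mean of repeat runs.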

The target of another assay is human Gal-1 (hGal-1) (Homo sapiens (Human), UniProt P09382). In words: competitive binding assay: biotinylated hGal-1 binding to microplate-adsorbed asialofetuin (ASF). Particulars: Table 15; read-out: IC50 (Galectin-1 inhibition). In outline:
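Spectrophotometric competition readout: after compound and biotinylated hGal-1 (300-1000 ng/mL) sit 3 h at 4° C on adsorbed asialofetuin, streptavidin-peroxidase (1 h, 4° C) and ABTS reveal residual binding. Reported IC50 values are means of repeat runs.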

The mark [1] stands for this setting: Table 5, read-out: IC50 (Gal-3 inhibition).
Where [2] appears, read: Gal-3 inhibition, binding of biotinylated hGal-3 to ASF, mean values, read-out: IC50.
[3] abbreviates: Table 14, read-out: IC50 (Gal-3 inhibition).

Chain of human Gal-3 (hGal-3) (P17931 whole entry): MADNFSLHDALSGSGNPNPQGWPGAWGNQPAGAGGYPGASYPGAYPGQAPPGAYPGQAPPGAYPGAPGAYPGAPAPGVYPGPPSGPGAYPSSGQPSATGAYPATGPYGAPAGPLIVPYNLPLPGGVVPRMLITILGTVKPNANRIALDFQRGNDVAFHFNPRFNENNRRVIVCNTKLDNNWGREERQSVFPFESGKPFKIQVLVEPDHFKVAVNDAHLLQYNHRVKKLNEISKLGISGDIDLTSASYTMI
Chain of human Gal-1 (hGal-1) (P09382 whole entry): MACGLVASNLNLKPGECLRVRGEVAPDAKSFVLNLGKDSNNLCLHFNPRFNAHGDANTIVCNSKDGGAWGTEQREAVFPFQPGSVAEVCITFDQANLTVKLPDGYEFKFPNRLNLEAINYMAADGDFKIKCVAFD

Consider `Cc1nc(C)c([C@@H](S[C@@H]2O[C@H](CO)[C@H](O)[C@H](n3cc(-c4cc(F)c(F)c(F)c4)nn3)[C@H]2O)C2(O)CCOCC2)nc1C` [Example 2.41.119R., (2R,3R,4S,5R,6S)-2-(Hydroxymethyl)-6-(((R)-(4-hydroxytetrahydro-2H-pyran-4-yl)(3,5,6-trimethylpyrazin-2-yl)methyl)thio)-4-(4-(3,4,5-trifluorophenyl)-1H-1,2,3-triazol-1-yl)tetrahydro-2H-pyran-3,5-diol], for which the IC50 (commonly the concentration needed to halve the response being measured) on human Gal-3 (hGal-3) (setting [1]) was found to be 60 nM; on human Gal-1 (hGal-1), 490 nM.

`CO[C@@H]1[C@@H](n2cc(-c3cc(F)c(F)c(F)c3)nn2)[C@@H](O)[C@@H](CO)O[C@H]1S[C@H](c1c(C)cnn1C)C1(O)CCC(F)(F)CC1` [Example 2.44.136R.I., (2R,3R,4S,5R,6S)-6-(((R)-(4,4-Difluoro-1-hydroxycyclohexyl)(1,4-dimethyl-1H-pyrazol-5-yl)methyl)thio)-2-(hydroxymethyl)-5-methoxy-4-(4-(3,4,5-trifluorophenyl)-1H-1,2,3-triazol-1-yl)tetrahydro-2H-pyran-3-ol]: the IC50 at human Gal-3 (hGal-3) (Table 10, 2-OMe-Gal inhibitors, read-out: IC50 (Gal-3 inhibition)) came to 260 nM; on human Gal-1 (hGal-1), 1900 nM.

For the molecule `Cc1c(F)cccc1C(S[C@@H]1O[C@H](CO)[C@H](O)[C@H](n2cc(-c3cc(F)c(F)c(F)c3)nn2)[C@H]1O)C(C)(C)O` (stereo partly drawn) [Example 2.31.114., (2S,3R,4S,5R,6R)-2-((1-(3-Fluoro-2-methylphenyl)-2-hydroxy-2-methylpropyl)thio)-6-(hydroxymethyl)-4-(4-(3,4,5-trifluorophenyl)-1H-1,2,3-triazol-1-yl)tetrahydro-2H-pyran-3,5-diol], the values for the IC50 on human Gal-3 (hGal-3) (setting [2]) and on human Gal-1 (hGal-1) were 130 nM and 2270 nM, respectively.

For `Cc1nc(C)c(C(S[C@@H]2O[C@H](CO)[C@H](O)[C@H](n3cc(-c4cc(F)c(F)c(F)c4)nn3)[C@H]2O)C2(O)CCOCC2)nc1C` (stereo partly drawn) [Example 2.41.119., (2R,3R,4S,5R,6S)-2-(Hydroxymethyl)-6-(((4-hydroxytetrahydro-2H-pyran-4-yl)(3,5,6-trimethylpyrazin-2-yl)methyl)thio)-4-(4-(3,4,5-trifluorophenyl)-1H-1,2,3-triazol-1-yl)tetrahydro-2H-pyran-3,5-diol], the IC50 at human Gal-3 (hGal-3) (setting [1]) amounted to 160 nM; on human Gal-1 (hGal-1), 20000 nM.

For the molecule `CC(C)(O)C(S[C@@H]1O[C@H](CO)[C@H](O)[C@H](n2cc(-c3cc(F)c(F)c(F)c3)nn2)[C@H]1O)c1ccccc1-c1ccccc1` (stereo partly drawn) [Example 2.31.110., (2S,3R,4S,5R,6R)-2-((1-([1,1′-Biphenyl]-2-yl)-2-hydroxy-2-methylpropyl)thio)-6-(hydroxymethyl)-4-(4-(3,4,5-trifluorophenyl)-1H-1,2,3-triazol-1-yl)tetrahydro-2H-pyran-3,5-diol], the IC50 on human Gal-3 (hGal-3) (setting [2]) came to 180 nM; on human Gal-1 (hGal-1) it was 400 nM.

With `CO[C@@H]1[C@@H](n2cc(-c3cc(F)c(C)c(F)c3)nn2)[C@@H](O)[C@@H](CO)O[C@H]1S[C@@H](c1ncccc1C)C1(O)CCC(F)(F)CC1` [Example 3.44.126S.I., (2R,3R,4S,5R,6S)-6-(((S)-(4,4-Difluoro-1-hydroxycyclohexyl)(3-methylpyridin-2-yl)methyl)thio)-4-(4-(3,5-difluoro-4-methylphenyl)-1H-1,2,3-triazol-1-yl)-2-(hydroxymethyl)-5-methoxytetrahydro-2H-pyran-3-ol], the IC50 at human Gal-3 (hGal-3) (setting [3]) was 1160 nM; on human Gal-1 (hGal-1), 20000 nM.

Regarding `CN1CCC(O)(C(S[C@@H]2O[C@H](CO)[C@H](O)[C@H](n3cc(-c4cc(F)c(F)c(F)c4)nn3)[C@H]2O)c2ncccc2C(F)(F)F)CC1` (stereo partly drawn) [Example 2.40.125., (2S,3R,4S,5R,6R)-2-(((4-Hydroxy-1-methylpiperidin-4-yl)(3-(trifluoromethyl)pyridin-2-yl)methyl)thio)-6-(hydroxymethyl)-4-(4-(3,4,5-trifluorophenyl)-1H-1,2,3-triazol-1-yl)tetrahydro-2H-pyran-3,5-diol], the IC50 on human Gal-3 (hGal-3) (setting [1]) was determined as 200 nM; at human Gal-1 (hGal-1), 530 nM.

Turning to `Cc1noc(C2CC2)c1C(S[C@@H]1O[C@H](CO)[C@H](O)[C@H](n2cc(-c3cc(F)c(F)c(F)c3)nn2)[C@H]1O)C1(O)CCCCC1` (stereo partly drawn) [Example 2.39.128., (2S,3R,4S,5R,6R)-2-(((5-Cyclopropyl-3-methylisoxazol-4-yl)(1-hydroxycyclohexyl)methyl)thio)-6-(hydroxymethyl)-4-(4-(3,4,5-trifluorophenyl)-1H-1,2,3-triazol-1-yl)tetrahydro-2H-pyran-3,5-diol], the IC50 on human Gal-3 (hGal-3) (setting [1]) worked out at 210 nM; on human Gal-1 (hGal-1), 1110 nM.

On to `Cc1nc(C)c([C@@H](S[C@@H]2O[C@H](CO)[C@H](O)[C@H](n3cc(-c4cc(F)c(F)c(F)c4)nn3)[C@H]2O)C2(O)CCN(C)CC2)nc1C` [Example 2.40.119R., (2S,3R,4S,5R,6R)-2-(((R)-(4-Hydroxy-1-methylpiperidin-4-yl)(3,5,6-trimethylpyrazin-2-yl)methyl)thio)-6-(hydroxymethyl)-4-(4-(3,4,5-trifluorophenyl)-1H-1,2,3-triazol-1-yl)tetrahydro-2H-pyran-3,5-diol], for which the IC50 is 50 nM at human Gal-3 (hGal-3) (setting [2]) and 110 nM at human Gal-1 (hGal-1).

`Cc1c(F)cccc1[C@H](S[C@@H]1O[C@H](CO)[C@H](O)[C@H](n2cc(-c3cc(F)c(F)c(F)c3)nn2)[C@H]1O)C(C)(C)O` (single isomer, unassigned) [Example 2.31.114R.]: the figures for the IC50 at human Gal-3 (hGal-3) (setting [2]) and on human Gal-1 (hGal-1) were 180 nM and 7240 nM, respectively.

For “(2S,3R,4S,5R,6R)-2-(((R)-(3,3-Difluoro-1-hydroxycyclobutyl)(3-(trifluoromethyl)pyridin-2-yl)methyl)thio)-6-(hydroxymethyl)-4-(4-(3,4,5-trifluorophenyl)-1H-1,2,3-triazol-1-yl)tetrahydro-2H-pyran-3,5-diol [Example 2.35.125R.]”, the values for the IC50 on human Gal-3 (hGal-3) (setting [1]) and on human Gal-1 (hGal-1) were 100 nM and 810 nM, respectively.

In the case of `CO[C@@H]1[C@@H](n2cc(-c3cc(F)c(Cl)c(Cl)c3)nn2)[C@@H](O)[C@@H](CO)O[C@H]1SC(c1ncccc1C)C1(O)CCC(F)(F)CC1` (stereo partly drawn) [Example 17.44.126.I., (2R,3R,4S,5R,6S)-4-(4-(3,4-Dichloro-5-fluorophenyl)-1H-1,2,3-triazol-1-yl)-6-(((4,4-difluoro-1-hydroxycyclohexyl)(3-methylpyridin-2-yl)methyl)thio)-2-(hydroxymethyl)-5-methoxytetrahydro-2H-pyran-3-ol], the IC50 at human Gal-3 (hGal-3) (setting [3]) was 140 nM; at human Gal-1 (hGal-1), 1680 nM.

`CC(C)c1ccccc1[C@@H](S[C@@H]1O[C@H](CO)[C@H](O)[C@H](n2cc(-c3cc(F)c(F)c(F)c3)nn2)[C@H]1O)C1(O)CCC(F)(F)CC1` [Example 2.44.105R., (2S,3R,4S,5R,6R)-2-(((R)-(4,4-Difluoro-1-hydroxycyclohexyl)(2-isopropylphenyl)methyl)thio)-6-(hydroxymethyl)-4-(4-(3,4,5-trifluorophenyl)-1H-1,2,3-triazol-1-yl)tetrahydro-2H-pyran-3,5-diol [1,3-di-deoxy-1-((4,4-difluoro-1-hydroxy-cyclohexan-1-yl)-(2-(-isopropyl)phenyl)methyl-(R)-thio)-3-[4-(3,4,5-trifluorophenyl)-1H-1,2,3-triazol-1-yl]-β-D-galactopyranoside]]: the IC50 on human Gal-3 (hGal-3) (setting [1]) stood at 60 nM; on human Gal-1 (hGal-1), 40 nM.

As for `CC(C)c1ccccc1[C@H](S[C@@H]1O[C@H](CO)[C@H](O)[C@H](n2cc(-c3cc(F)c(F)c(F)c3)nn2)[C@H]1O)C(C)(C)O` [Example 2.31.105S., (2S,3R,4S,5R,6R)-2-(((S)-2-Hydroxy-1-(2-isopropylphenyl)-2-methylpropyl)thio)-6-(hydroxymethyl)-4-(4-(3,4,5-trifluorophenyl)-1H-1,2,3-triazol-1-yl)tetrahydro-2H-pyran-3,5-diol], the IC50 at human Gal-3 (hGal-3) (setting [2]) stood at 8300 nM; at human Gal-1 (hGal-1) it was 65100 nM.

Consider “(2S,3R,4S,5R,6R)-2-(((R)-((R)-4-Hydroxy-2,2-dimethyltetrahydro-2H-pyran-4-yl)(2-(trifluoromethyl)phenyl)methyl)thio)-6-(hydroxymethyl)-4-(4-(3,4,5-trifluorophenyl)-1H-1,2,3-triazol-1-yl)tetrahydro-2H-pyran-3,5-diol [Example 2.43.102RR.]”, for which the IC50 at human Gal-3 (hGal-3) (setting [1]) came to 290 nM; on human Gal-1 (hGal-1), 8800 nM.

As for `CC(=O)N1CCC(O)(C(S[C@@H]2O[C@H](CO)[C@H](O)[C@H](n3cc(-c4cc(F)c(F)c(F)c4)nn3)[C@H]2O)c2ccccc2C(F)(F)F)CC1` (stereo partly drawn) [Example 2.48.112., 1-(4-((((2S,3R,4S,5R,6R)-3,5-Dihydroxy-6-(hydroxymethyl)-4-(4-(3,4,5-trifluorophenyl)-1H-1,2,3-triazol-1-yl)tetrahydro-2H-pyran-2-yl)thio)(2-(trifluoromethyl)phenyl)methyl)-4-hydroxypiperidin-1-yl)ethan-1-one], the IC50 was determined as 220 nM at human Gal-3 (hGal-3) (setting [2]) and 750 nM on human Gal-1 (hGal-1).

For the molecule `OC[C@H]1O[C@@H](SC(c2ccccc2C(F)(F)F)C2(O)CC(F)(F)C2)[C@H](O)[C@@H](n2cc(-c3cc(F)c(F)c(F)c3)nn2)[C@H]1O` (stereo partly drawn) [Example 2.33.112., (2S,3R,4S,5R,6R)-2-(((3,3-Difluoro-1-hydroxycyclobutyl)(2-(trifluoromethyl)phenyl)methyl)thio)-6-(hydroxymethyl)-4-(4-(3,4,5-trifluorophenyl)-1H-1,2,3-triazol-1-yl)tetrahydro-2H-pyran-3,5-diol], the IC50 at human Gal-3 (hGal-3) (setting [1]) was determined as 250 nM; on human Gal-1 (hGal-1), 1800 nM.
